Test results: US6306899A (priority 1999, dated 2001)
In brackets after ≈: the same amount, converted by molar mass. Entries after “also recorded” stand apart in the source; their conditions may differ.

What was measured:
[1] = tested on: 3TC resistant HBV (DM2); experiment: Activity against 3TC resistant HBV (DM2, L526MM550V) in transfected HepG2 cells; assay type: cell-based, Hepatitis B virus; settings: in words; for effect on 3TC resistant HBV: DM2, HepG2, 9 days
[2] = tested on: WT10; experiment: Activity against wild-type HBV (WT10) in transfected HepG2 cells; assay type: cell-based, Hepatitis B virus; settings: in words
[3] = tested on: HBV; settings: background; in words; cited from earlier work
[4] = tested on: HBsAg; experiment: microbe, parasite or virus in culture; assay type: cell-based, Hepatitis B virus
[5] = tested on: HBV; experiment: microbe, parasite or virus in culture; assay type: cell-based, Hepatitis B virus; settings: for inhibition of HBV replication / DNA level: in words
[6] = tested on: Yellow Fever virus; experiment: microbe, parasite or virus in culture; assay type: cell-based
[7] = Cytotoxicity, HepG2 cell growth; assay type: cell-based; settings: human, hepg2 cells; 3 days; read-out: Cytotoxicity (IC50) HepG2 cell
Protocol: (§1) To determine the cellular toxicity of the present compounds, the T-lymphoblastoic cell line (CEM) and the HEP-G2 cell line (parent cell line from which 2.2.15 cell line is produced) were used. Cells were subjected to varying concentrations of the drug(s) and cell numbers were determined 3 days post treatment by the method described by Chen, C-H and Cheng, Y-C, J. Biol. Chem., 264, 11934 (1989). Concentrations of the drug which would result in inhibition of cell growth were determined from the plot generated by representing cell numbers corresponding to the individual drug concentrations.

[8] = Cytotoxicity, CEM cell growth; assay type: cell-based; settings: human, cem cells; 3 days; read-out: Cytotoxicity (IC50) CEM cell
Protocol: as §1

[9] = Solubility: saturated solution in PBS at room temperature; assay type: physicochemical; settings: aqueous buffer
Text: 3. The symbol "*" denotes the concentration of the saturated solution in
PBS at room temperature.

[10] = tested on: HBsAg in HepA2 cells; experiment: Suppression of HBsAg secretion in HepA2 cells, serum-free, 2 days; assay type: cell-based; settings: Homo sapiens, HepA2, 48 h, read-out: EC50 HepA2 (50% reduction of HBsAg secretion)
Text: (§2) Biological testing results of Helioxanthin and
(§3) its derivatives for suppression of HBsAg
(§4) in HepA2 and Hep3B cells in serum-free condition for 2 days
The symbol, "*" denotes HepA2, HBV DNA stable transfected HBV dimer DNA.
(§5) The symbol, "**" denotes EC50, the concentration of tested compounds
(§6) which exerted 50% reduction of HBsAg secretion in human hepatoma cells.

[11] = tested on: HBsAg in Hep3B cells; experiment: Suppression of HBsAg secretion in Hep3B cells, serum-free, 2 days; assay type: cell-based; settings: Homo sapiens, 48 h, read-out: EC50 Hep3B (50% reduction of HBsAg secretion)
Text: as §2, §3, §4, §5, §6

[12] = tested on: HBV RNA; experiment: HBV RNA level (Northern analysis); assay type: cell-based, Hepatitis B virus; settings: in words
Protocol: The biological activity of the present compounds was assessed as described by Doong, S-L, et al., Proc. Natl. Acad. Sci. U.S.A 88, 8495-8499 (1991). The human hepatoma cell line carrying HBV (cell line designated 2.2.15) provided by Dr. G. Aces was used in the study. Price, et al., Proc. Natl. Acad. Sci. U.S.A. 86, 8541 (1989). Briefly, six day-old cultures were treated with varying concentrations of the drug in the culture medium (Minimum essential medium with Earl's salts and 10% fetal bovine serum). The drug was left in the culture medium for a period of 3 days after which period the medium was aspirated and fresh medium containing the same concentration(s) of the drug was added. […] Inhibition of the viral replication was determined by the comparison of the viral DNA from drug-treated versus control cultures not treated with the drug. In addition, supernatant obtained from the polyethylene glycol precipitation of the cell culture medium (above) was measured for the presence of two HBV antigens (HBsAg and HBeAg) using enzyme immunoassay kits from Abbott Laboratories, Inc. [HBs (rDNA) EIA and HBe (rDNA)EIA], pursuant to standard practice (FIG. 3A). RNA levels were determed using Northern analysis with cellular albumin RNA being measured as a load control to standardize the quality of the HBV RNA measurement (FIG. 3B).

Row | Structure (SMILES) | sensitivity of HBV DNA production of DM2 to 3TC ([1]; DM2) | sensitivity of HBV DNA production of WT10 to 3TC [2] | effect on HBV infection [3] | EC50 ([4]; Hepatitis B virus, 144 h, read-out: Anti-viral activity (ED50) HbsAg) | HbsAg expression inhibition ([4]; in words) | EC50 ([5]; Hepatitis B virus, 144 h) | inhibition of HBV replication / DNA level [5] | inhibition of HBV replication / DNA level ([5]; listed as helioxanthin) | EC50 ([6]; Yellow fever virus, BHK, 144 h, read-out: Anti-viral activity (ED50) YFV, plaque reduction, BHK cells, 6 days) | activity against the Yellow fever virus ([6]; in words) | CC50 at 72 h [7] | CC50 at 72 h [8] | solubility [9] | EC50 [10] | EC50 [11] | HBV RNA level [12] | HBV RNA level ([12]; listed as helioxanthin) | effect on 3TC resistant HBV [1] | effect on 3TC resistant HBV ([1]; listed as helioxanthin)
1 | Nc1ccn([C@@H]2CS[C@H](CO)O2)c(=O)n1 [Compound 3TC] | resistant | sensitive | recurrence of HBV after a period of treatment | – | – | – | – | – | – | – | – | – | – | – | – | – | – | – | –
2 | O=C1OCc2c1cc1ccc3c(c1c2-c1ccc2c(c1)OCO2)OCO3 [Compound 145, 7,8-methylenedioxy-1-(3',4'-methylenedioxyphenyl)-2-hydroxymethylnaphthalene-3-carboxylic acid lactone] | – | – | – | 4 µM | inhibit HBV replication and HbsAg expression | 1 µM | selectively inhibited HBV replication; also recorded: decreased the RNA and DNA level; also recorded: the most active compound in the series tested; also recorded: inhibit HBV replication in cell culture | selectively inhibited HBV replication | 9.5 µM | demonstrated activity against the Yellow fever virus | 26 µM | 22 µM | 24.7 µM (≈ 8.6 µg/mL) | 0.25 µM | 0.025 µM | decreased the RNA and DNA level; also recorded: decrease the RNA level of HBV | decreased the RNA level | excellent anti-HBV activity even in 3TC (L(-)SddC) resistant HBV | stronger inhibition of viral replication of strains of HBV that have become resistant to 3TC
